Laboratory results published in patent US20100316738A1, “METHODS OF INHIBITING, PREVENTING, KILLING AND/OR REPELLING INSECTS USING SIMULATED BLENDS OF CHENOPODIUM EXTRACTS” (priority 2009, published 2010).
“And” between values parts separate entries of the source, which are not always exact repeats. Equal entries are not always repeated.

Test system: lepidoptera eggs (Spodoptera exigua)
Experiment: Direct contact overlay LC assay, caterpillar eggs
Conditions: for Times more active in the C13 blend than when tested alone: LC50 alone vs share of C13 LC50 (1% solution); for Direct AVG LC50 / Estimated LC50: mortality after five days; for Direct AVG LC50: diluent 0.25% Tween 81; for Estimated LC50: nested set, probit analysis, tested alone in 0.25% Tween 81
Description: The objective of this study was to evaluate the effects of synthetic blend-based composition C13 and each of its primary terpenes against lepidoptera eggs (Spodoptera exigua) in a laboratory assay that mimics contact activity on a leaf surface in the field. This was done by estimating the LC50 of the solvent/carrier (in this instance, vegetable oil) and the three primary terpenes alone, and comparing those values to the estimated LC50 of C13.
A requirement of the Probit model used to estimate the LC50 is that there should be a dose response with two rates above 50% mortality and two rates below 50%. Because of their solubility it was not possible to get this with a neat solution of oil or terpenes so, a series of preliminary assays were conducted to find a suitable carrier, testing solutions compatible with the terpenes and carrier. To achieve a stable emulsion of the individual terpenes that could be pipetted across a suitable range of concentrations, it was decided to use a universal diluent containing 0.25% Tween™ 81.
Stock solutions were transferred to deep, 96-well, micro-titre plates. 1.4 ml of each stock solution was placed in the 2 ml wells that ran across the top row of the deep well plate (Row A; wells 1-12, see Table 15). A digital 12-channel Matrix pipette was then used to add 700 uls of 0.25% Tween 81 in deionized water (DI H2O) to the remaining wells (Rows B-H; 1-12). The 12 channel pipette was used to perform serial dilutions by mixing, aspirating, and then dispensing 700 ul of each stock solution from row A into the adjoining 700 ul of diluent in row B. This process was repeated seven times to give a final concentration of eight, 50% serially diluted samples containing 700 μl.
An eight channel Matrix pipette was then used to mix, aspirate and distribute all eight of the serial dilutions from the deep well plate to a labeled 96 well plate containing a wheat germ/casein-based artificial diet. Aliquots containing 240 μl of each dilution were aspirated and 40 μl were dispensed into to six wells across the surface of the micro-titre plate containing 200 μl of artificial diet/well. Two samples were tested on every plate with the one sample in rows A through H—columns 1 to 6, and the second sample in wells A through H columns 7 to 12. The last two samples in each assay contain the Javelin standard and 0.25% Tween in DI water as the untreated controls.
The samples were then dried under forced air at room temperature. This deposits a thin film of the treatment on the surface of the diet much the same way as applying a spray solution to a leaf surface. Once the plates were dried, then eggs were put in each well using a Matrix pipette with 5-10 temporally synchronized caterpillar eggs suspended in 20 μl of a 0.1% agar solution. This rehydrates the surface film and then the egg:agar was dried under forced air, a second time. Once the agar solution was dry the plates were heat sealed with a perforated Mylar film that seals the insects in the well, but allows for gas exchange. The plates were incubated at 28° C. on a 16:8 light:dark cycle. After five days the numbers of live insects in each row were recorded. Mortality was recorded as the number dead over the number treated and expressed as control corrected percent mortality.

Structure (SMILES)	Times more active in the C13 blend than when tested alone	Direct AVG LC50	Estimated LC50
C=C(C)[C@H]1CC=C(C)CC1 [d-limonene]	64 X	2.093%	1.9% and 1.905%
CC1=CC=C(C(C)C)CC1 [α-terpinene]	–	4.336%	4.77% and 4.776%
Cc1ccc(C(C)C)cc1 [p-cymene]	72 X	1.539%	2.68% and 2.682%
